Literature values as cited in US20140275170A1, “TASTE MASKING OF ANESTHETICS AND ANALGESICS” (priority 2013, published 2014).

Details: maximum doses of 7 mg/kg (550 mg)

Structure (SMILES): Cc1cccc(C)c1NC(=O)C1CCCCN1C (stereo not shown) [mepivacaine]
- Adverse effect at maximum doses: without adverse effect
